In patent US10428055B2, “Substituted piperidines having GPR119 agonistic activity” (DONG-A ST CO., LTD., priority 2014, dated 2019) one finds Emax data, which are given here for 21 compounds.

The experiment addresses T1, Human GPR119 (Homo sapiens, UniProt Q8TDV5).
T1 construct: host or cells: HEK293 (ATCC)
T1 sequence (Q8TDV5 1-335): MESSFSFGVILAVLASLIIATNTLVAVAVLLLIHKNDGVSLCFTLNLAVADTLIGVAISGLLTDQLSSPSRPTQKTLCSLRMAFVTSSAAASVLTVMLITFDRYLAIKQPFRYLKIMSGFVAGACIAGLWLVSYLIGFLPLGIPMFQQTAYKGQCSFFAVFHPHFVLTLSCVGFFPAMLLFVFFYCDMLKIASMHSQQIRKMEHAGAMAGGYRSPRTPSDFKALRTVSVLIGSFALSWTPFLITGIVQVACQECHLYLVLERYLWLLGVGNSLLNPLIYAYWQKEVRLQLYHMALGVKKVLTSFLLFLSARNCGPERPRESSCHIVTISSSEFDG
The experiment in a line: Human GPR119 activation assay (cAMP, HTRF). The format is cell-based. As to conditions: 1 h, HEK293 cells transiently expressing human GPR119, relative to maximum effect of OEA, read-out: hGPR119 activation ability (cAMP assay) Relative Response % vs OEA; for Emax at 0.001 µM: 1 nM; for Emax at 0.01 µM: 10 nM. The source says:
<Experimental Example 1>Human GPR119 activation assay
Human GPR119 was temporarily expressed on cells, thereby quantifying the amount of cyclic adenosine 3′,5′-monophosphate (cAMP) increased upon activating GPR119 by the compound of the present invention, using the product from Cysbio, by a method of HTRF (homogeneous time resolved fluorescence), and such quantification was used to refer to efficacy on GPR119 activation.
Human GPR119 expression vector (Origene) was overexpressed in […] renal epithelial cells (HEK293) (ATCC), and the cells were stabilized for 48 hours. With a solution of 11.1 mM glucose, 0.1% bovine serum albumin, and 0.5 mM IBMX (3-isobutyl-1-methylxanthine) which is a phosphodiesterase inhibitor being added to a KRBH (Krebs-Ringer Bicarbonate HEPES; Hou ZQ. et al., Mol Cell Endocrinol, 2008(291):71-78) buffer, the cells were pre-treated for 10 minutes. Thereafter, the cells were treated with the same solution containing a drug for 60 minutes, then the supernatant was removed, and the increase in cAMP in cells was quantified using a Cysbio cAMP HiRange kit.
As to the maximum efficacy of compounds tested, multiple concentration assessment for the compounds of the present invention was carried out, thereby assessing the relative activation level (%) to the maximum effect of oleoylethanolamide (OEA), an endogenous ligand of GPR119.

On to `CCc1cnc(N2CCC(CCCOc3cc(F)c(-c4nnc(NC(C)C)o4)c(F)c3)CC2)nc1` [Example 45, 5-(4-(3-(1-(5-ethylpyrimidin-2-yl)piperidin-4-yl)propoxy)-2,6-difluorophenyl)-N-isopropyl-1,3,4-oxadiazol-2-amine], for which the Emax at 0.001 µM was found to be 156% and the Emax at 0.01 µM is 330%.

On to `CCc1cnc(N2CCC(CCCOc3cc(F)c(C4=NCCO4)c(F)c3)CC2)nc1` [Example 1, 2-(4-(3-(1-(5-ethylpyrimidin-2-yl)piperidin-4-yl)propoxy)-2,6-difluorophenyl)-4,5-dihydrooxazole], for which the Emax at 0.001 µM was found to be 50.7% and the Emax at 0.01 µM is 116%.

Consider `CCc1cnc(N2CCC(CCCOc3cc(F)c(-c4noc(C[C@@H](C)O)n4)c(F)c3)CC2)nc1` [Example 20, (R)-1-(3-(4-(3-(1-(5-ethylpyrimidin-2-yl)piperidin-4-yl)propoxy)-2,6-difluorophenyl)-1,2,4-oxadiazol-5-yl) propan-2-ol], for which the Emax at 0.001 µM is 235% and the Emax at 0.01 µM came to 413%.

For the compound `CCc1cnc(N2CCC(CCCOc3cc(F)c(C4=N[C@@H](C)CO4)c(F)c3)CC2)nc1` [Example 3, (S)-2-(4-(3-(1-(5-ethylpyrimidin-2-yl)piperidin-4-yl)propoxy)-2,6-difluorophenyl)-4-methyl-4,5-dihydrooxazole], the Emax at 0.001 µM was 192% and the Emax at 0.01 µM worked out at 47.8%.

As to `CCc1cnc(N2CCC(CCCOc3cc(F)c(-c4noc(C[C@H](C)O)n4)c(F)c3)CC2)nc1` [Example 21, (S)-1-(3-(4-(3-(1-(5-ethylpyrimidin-2-yl)piperidin-4-yl)propoxyl)-2,6-difluorophenyl)-1,2,4-oxadiazol-5-yl) propan-2-ol], the Emax at 0.001 µM is 160% and the Emax at 0.01 µM came out at 336%.

On to `Cc1nnc(-c2c(F)cc(OCCCC3CCN(c4cnc(Cl)cn4)CC3)cc2F)o1` [Example 49, 2-(4-(3-(1-(5-chloropyrazin-2-yl)piperidin-4-yl)propoxy)-2,6-difluorophenyl)-5-methyl-1,3,4-oxadiazole], for which the Emax at 0.001 µM was determined as 83.4% and the Emax at 0.01 µM was found to be 121%.

As to `CCc1cnc(N2CCC(CCCOc3cc(F)c(C4=NC[C@@H](CO)O4)c(F)c3)CC2)nc1` [Example 8, (S)-(2-(4-(3-(1-(5-ethylpyrimidin-2-yl)piperidin-4-yl)propoxy)-2,6-difluorophenyl)-4,5-dihydrooxazol-5-yl)methanol], the Emax at 0.001 µM came to 144% and the Emax at 0.01 µM was determined as 393%.

`CC(C)c1nnc(-c2c(F)cc(OCCCC3CCN(c4ncc(C(F)(F)F)cn4)CC3)cc2F)s1` [Example 64, 2-(2,6-difluoro-4-(3-(1-(5-(trifluoromethyl)pyrimidin-2-yl)piperidin-4-yl)propoxy)phenyl)-5-isopropyl-1,3,4-thiadiazole]: the Emax at 0.001 µM stood at 77% and the Emax at 0.01 µM is 179%.

For the compound `CCc1cnc(N2CCC(CCCOc3cc(F)c(-c4noc(CO)n4)c(F)c3)CC2)nc1` [Example 17, (3-(4-(3-(1-(5-ethylpyrimidin-2-yl)piperidin-4-yl)propoxy)-2,6-difluorophenyl)-1,2,4-oxadiazol-5-yl)methanol], the Emax at 0.001 µM came out at 116% and the Emax at 0.01 µM is 216%.

`CCc1cnc(N2CCC(CCCOc3cc(F)c(C4=NCC(C)(C)O4)c(F)c3)CC2)nc1` [Example 6, 2-(4-(3-(1-(5-ethylpyrimidin-2-yl)piperidin-4-yl)propoxy)-2,6-difluorophenyl)-5,5-dimethyl-4,5-dihydrooxazole]: the Emax at 0.001 µM was determined as 33.5% and the Emax at 0.01 µM worked out at 102%.

For the compound `CC(C)c1nc(-c2c(F)cc(OCCCC3CCN(c4cnc(Cl)cn4)CC3)cc2F)no1` [Example 37, 3-(4-(3-(1-(5-chloropyrazin-2-yl)piperidin-4-yl)propoxy)-2,6-difluorophenyl)-5-isopropyl-1,2,4-oxadiazole], the Emax at 0.001 µM came out at 52.1% and the Emax at 0.01 µM was 307%.

As for `CC(C)Oc1cnc(N2CCC(CCCOc3cc(F)c(-c4noc(C(C)C)n4)c(F)c3)CC2)nc1` [Example 27, 3-(2,6-difluoro-4-(3-(1-(5-isopropoxypyrimidin-2-yl)piperidin-4-yl)propoxy)phenyl)-5-isopropyl-1,2,4-oxadiazole], the Emax at 0.001 µM is 9.4% and the Emax at 0.01 µM was 123%.

Consider `Cc1nc(-c2c(F)cc(OCCCC3CCN(c4nc(C(C)C)no4)CC3)cc2F)no1` [Example 39, 3-(2,6-difluoro-4-(3-(1-(3-isopropyl-1,2,4-oxadiazol-5-yl)piperidin-4-yl)propoxy)phenyl)-5-methyl-1,2,4-oxadiazole], for which the Emax at 0.001 µM was found to be 120% and the Emax at 0.01 µM stood at 201%.

Take `CC(C)c1nnc(-c2c(F)cc(OCCCC3CCN(c4ncc(C(F)(F)F)cn4)CC3)cc2F)o1` [Example 48, 2-(2,6-difluoro-4-(3-(1-(5-(trifluoromethyl)pyrimidin-2-yl)piperidin-4-yl)propoxy)phenyl)-5-isopropyl-1,3,4-oxadiazole]: the Emax at 0.001 µM stood at 163% and the Emax at 0.01 µM stood at 441%.

Turning to `COCc1nc(-c2c(F)cc(OCCCC3CCN(c4ncc(-c5noc(CC(C)C)n5)cn4)CC3)cc2F)no1` [Example 34, 3-(2,6-difluoro-4-(3-(1-(5-(5-isobutyl-1,2,4-oxadiazol-3-yl)pyrimidin-2-yl)piperidin-4-yl)propoxy)phenyl)-5-(methoxymethyl)-1,2,4-oxadiazole], the Emax at 0.001 µM is 82.1% and the Emax at 0.01 µM is 134%.

With `CCc1cnc(N2CCC(CCCOc3cc(F)c(C4=N[C@H](C)CO4)c(F)c3)CC2)nc1` [Example 2, (R)-2-(4-(3-(1-(5-ethylpyrimidin-2-yl)piperidin-4-yl)propoxy)-2,6-difluorophenyl)-4-methyl-4,5-dihydrooxazole], the Emax at 0.001 µM is 34.8% and the Emax at 0.01 µM was found to be 113%.

With `CC(C)Cc1nc(-c2cnc(N3CCC(CCCOc4cc(F)c(C5=NC[C@@H](C)O5)c(F)c4)CC3)nc2)no1` [Example 9, (R)-3-(2-(4-(3-(3,5-difluoro-4-(5-methyl-4,5-dihydrooxazol-2-yl)phenoxy)propyl)piperidin-1-yl)pyrimidin-5-yl)-5-isobuty-1,2,4-oxadiazole], the Emax at 0.001 µM is 97.1% and the Emax at 0.01 µM worked out at 241%.

With `Cc1nc(-c2c(F)cc(OCCCC3CCN(c4ncc(-c5noc(CC(C)C)n5)cn4)CC3)cc2F)no1` [Example 30, 3-(2,6-difluoro-4-(3-(1-(5-(5-isobutyl-1,2,4-oxadiazol-3-yl)pyrimidin-2-yl)piperidin-4-yl)propoxy)phenyl)-5-methyl-1,2,4-oxadiazole], the Emax at 0.001 µM is 103% and the Emax at 0.01 µM was determined as 172%.

Turning to `CCc1cnc(N2CCC(CCCOc3cc(F)c(-c4noc(C(C)(C)C)n4)c(F)c3)CC2)nc1` [Example 16, 5-(tert-butyl)-3-(4-(3-(1-(5-ethylpyrimidin-2-yl)piperidin-4-yl)propoxy)-2,6-difluorophenyl)-1,2,4-oxadiazole], the Emax at 0.001 µM came out at 108% and the Emax at 0.01 µM turned out to be 321%.

`CCc1nc(-c2c(F)cc(OCCCC3CCN(c4ncc(-c5noc(CC(C)C)n5)cn4)CC3)cc2F)no1` [Example 31, 3-(2,6-difluoro-4-(3-(1-(5-(5-isobutyl-1,2,4-oxadiazol-3-yl)pyrimidin-2-yl)piperidin-4-yl)propoxy)phenyl)-5-ethyl-1,2,4-oxadiazole]: the Emax at 0.001 µM came to 59.4% and the Emax at 0.01 µM turned out to be 116%.

As for `CCc1nnc(-c2c(F)cc(OCCCC3CCN(c4nc(C(C)C)no4)CC3)cc2F)o1` [Example 56, 5-(4-(3-(4-(5-ethyl-1,3,4-oxadiazol-2-yl)-3,5-difluorophenoxy)propyl)piperidin-1-yl)-3-isopropyl-1,2,4-oxadiazole], the Emax at 0.001 µM turned out to be 265% and the Emax at 0.01 µM amounted to 373%.
